ChEMBL document CHEMBL1201862, “PubChem BioAssay data set” (2004)
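48-hour exposure; five concentrations; linearly interpolated endpoints. GI50: concentration for 50% inhibition of growth.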 Active and inactive are the calls of the source. No stated cut-off is given here; in the data, active = GI50 up to about 1.1 µM and inactive = higher.

Experiments:
Test in all cases: NCI-60 cell line screen, 48 h
NCI-H522 = system: NCI-H522
SR = system: SR
SNB-19 = system: SNB-19
NCI-H460 = system: NCI-H460
SF-295 = system: SF-295
U-251 = system: U-251
A549 = system: A549
RXF 393 = system: RXF 393
HCT-116 = system: HCT-116
SK-MEL-28 = system: SK-MEL-28
HOP-92 = system: HOP-92
SF-539 = system: SF-539
Hs-578T = system: Hs-578T
MOLT-4 = system: MOLT-4
HCC 2998 = system: HCC 2998
DU-145 = system: DU-145
MDA-MB-231 = system: MDA-MB-231
NCI/ADR-RES = system: NCI/ADR-RES
A498 = system: A498
HT-29 = system: HT-29

| Structure (SMILES) | GI50 (NCI-H522) | GI50 (SR) | GI50 (SNB-19) | GI50 (NCI-H460) | GI50 (SF-295) | GI50 (U-251) | GI50 (A549) | GI50 (RXF 393) | GI50 (HCT-116) | GI50 (SK-MEL-28) | GI50 (HOP-92) | GI50 (SF-539) | GI50 (Hs-578T) | GI50 (MOLT-4) | GI50 (HCC 2998) | GI50 (DU-145) | GI50 (MDA-MB-231) | GI50 (NCI/ADR-RES) | GI50 (A498) | GI50 (HT-29) |
| --- | --- | --- | --- | --- | --- | --- | --- | --- | --- | --- | --- | --- | --- | --- | --- | --- | --- | --- | --- | --- |
| Nc1ncnc2c1ncn2[C@H]1CC[C@@H](NO)C1 | > 100 µM (inactive) | > 100 µM (inactive) | > 100 µM (inactive) | > 100 µM (inactive) | > 100 µM (inactive) | > 100 µM (inactive) | > 100 µM (inactive) | > 100 µM (inactive) | > 100 µM (inactive) | > 100 µM (inactive) | > 100 µM (inactive) | > 100 µM (inactive) | > 100 µM (inactive) | > 100 µM (inactive) | > 100 µM (inactive) | > 100 µM (inactive) | > 100 µM (inactive) | > 100 µM (inactive) | > 100 µM (inactive) |  |
| COC(=O)C1Cc2c(C)cccc2C1=O (stereo not drawn) | > 100 µM (inactive) | 50.8 µM (inactive) | > 100 µM (inactive) | > 100 µM (inactive) | > 100 µM (inactive) | > 100 µM (inactive) | > 100 µM (inactive) | > 100 µM (inactive) | > 100 µM (inactive) | > 100 µM (inactive) | > 100 µM (inactive) | > 100 µM (inactive) | > 100 µM (inactive) | > 100 µM (inactive) | > 100 µM (inactive) | > 100 µM (inactive) | > 100 µM (inactive) | > 100 µM (inactive) | > 100 µM (inactive) | > 100 µM (inactive) |
| O=C1c2ccccc2-n2c1nc1ccccc1c2=O [TRYPTANTHRIN] | 15.3 µM (inactive) | 8.47 µM (inactive) | 25 µM (inactive) | 1.44 µM (inactive) | 4.29 µM (inactive) | 3.34 µM (inactive) | 2.59 µM (inactive) | 28.1 µM (inactive) | 5.86 µM (inactive) | 15.8 µM (inactive) | 44.5 µM (inactive) | 20.7 µM (inactive) | 17.1 µM (inactive) | 7.94 µM (inactive) | 29.4 µM (inactive) | 10.7 µM (inactive) | 16.7 µM (inactive) | 22.3 µM (inactive) | 18.2 µM (inactive) | 14.8 µM (inactive) |
| N=C(N)NCCCCCCC(=O)NC(O)C(=O)NCCCCNCCCN (stereo not drawn) | 479 µM (inactive) | 1280 µM (inactive) | 695 µM (inactive) | 718 µM (inactive) | 553 µM (inactive) | 611 µM (inactive) | 473 µM (inactive) | 700 µM (inactive) | 711 µM (inactive) | > 750 µM (inactive) | 360 µM (inactive) | > 628 µM (inactive) | 748 µM (inactive) | 659 µM (inactive) | > 562 µM (inactive) | > 750 µM (inactive) | > 750 µM (inactive) | > 750 µM (inactive) | > 750 µM (inactive) | > 750 µM (inactive) |
| C=C(C)[C@@H]1CC[C@]2(C)CC[C@]3(C)[C@H](CC[C@@H]4[C@@]5(C)CC[C@H](O)C(C)(C)[C@@H]5CC[C@]43C)[C@@H]12 [LUPEOL] | 23.8 µM (inactive) | 42.8 µM (inactive) | > 47.3 µM (inactive) | 45.7 µM (inactive) | > 50.8 µM (inactive) | 21.9 µM (inactive) | > 62.7 µM (inactive) | 14 µM (inactive) | 44.5 µM (inactive) | > 65.2 µM (inactive) | 36.1 µM (inactive) | > 88.7 µM (inactive) | 25.6 µM (inactive) | 27.5 µM (inactive) | > 100 µM (inactive) | > 100 µM (inactive) | 58.6 µM (inactive) | 26.7 µM (inactive) | 13.4 µM (inactive) | > 78.2 µM (inactive) |
| CCOC(C/N=c1/nc(N(C)C)ss1)OCC | 0.0998 µM (active) | 1.48 µM (inactive) | > 67.1 µM (inactive) | 4.31 µM (inactive) | 22.2 µM (inactive) | 16 µM (inactive) | 57 µM (inactive) | 19 µM (inactive) | 14.9 µM (inactive) | 21.5 µM (inactive) | 18.4 µM (inactive) | 17.4 µM (inactive) | > 54.8 µM (inactive) | 0.593 µM (active) | > 77.4 µM (inactive) | > 71.1 µM (inactive) | 15.5 µM (inactive) | > 100 µM (inactive) | > 82.8 µM (inactive) | 0.135 µM (active) |
| O=c1[nH]c(Br)nc2[nH]nnc12 | > 100 µM (inactive) | 42.2 µM (inactive) | > 100 µM (inactive) | > 100 µM (inactive) | 72.8 µM (inactive) | 68.7 µM (inactive) | > 100 µM (inactive) | 35 µM (inactive) | 32 µM (inactive) |  | > 100 µM (inactive) | 16.7 µM (inactive) | 38.3 µM (inactive) | 2.73 µM (inactive) | > 100 µM (inactive) | 14.1 µM (inactive) | 34.7 µM (inactive) | 10.4 µM (inactive) | > 100 µM (inactive) | > 100 µM (inactive) |
| COc1ccc2c(c1OC)C(Br)CCC(Br)(Br)C2=O (stereo not drawn) | 1.58 µM (inactive) | 1.27 µM (inactive) | 15.5 µM (inactive) | 16 µM (inactive) | 17.6 µM (inactive) | 16.7 µM (inactive) | 13.6 µM (inactive) | 3.91 µM (inactive) | 4.9 µM (inactive) | 13.1 µM (inactive) | 3.52 µM (inactive) | 3.17 µM (inactive) | 18.5 µM (inactive) | 1.75 µM (inactive) | 11.6 µM (inactive) | 12.4 µM (inactive) | 16.3 µM (inactive) | 14.1 µM (inactive) | 16 µM (inactive) | 4.43 µM (inactive) |
| CC(C)=CCC[C@@H](C)[C@H]1CC[C@@]2(C)[C@@H]3CC[C@H]4C(C)(C)[C@@H](O)CC[C@@]45C[C@@]35CC[C@]12C [CYCLOARTENOL] | 20.7 µM (inactive) | 24.3 µM (inactive) | 58.7 µM (inactive) | 17.8 µM (inactive) | > 48.2 µM (inactive) | 15.5 µM (inactive) | 21.6 µM (inactive) | 18 µM (inactive) | 23.5 µM (inactive) | 39.4 µM (inactive) | 17.7 µM (inactive) | > 49.7 µM (inactive) | 33.4 µM (inactive) | > 51.9 µM (inactive) | > 31.6 µM (inactive) | 59.7 µM (inactive) | > 44.9 µM (inactive) | 23.4 µM (inactive) | 41.2 µM (inactive) | > 100 µM (inactive) |
| O=C1CCCc2cc3c(cc21)CC1(C3)Cc2ccc3c(c2C1)C(=O)CCC3 (stereo not drawn) | 20.9 µM (inactive) | 7.45 µM (inactive) | 67.6 µM (inactive) | 26.5 µM (inactive) | 18.5 µM (inactive) | 39.2 µM (inactive) | 21.1 µM (inactive) | 37.1 µM (inactive) | 12.2 µM (inactive) | 26.1 µM (inactive) | 21.3 µM (inactive) | 28.3 µM (inactive) | 65.6 µM (inactive) | 4.12 µM (inactive) | 71.8 µM (inactive) | 39.8 µM (inactive) | 29.2 µM (inactive) | 6.25 µM (inactive) | 41.2 µM (inactive) | 16.3 µM (inactive) |
